According to patent US12146004B2, “Polymyxin compounds and uses thereof” (priority 2014, dated 2024):
Converted amounts (≈) assume the structure as drawn. Like-named read-outs stand apart in the source and are kept apart here.

Columns and labels:
Type in all cases: cell-based
Acinetobacter baumannii = tested on: Acinetobacter baumannii
Procedure: (§1) To evaluate the potency and spectrum of the compounds, susceptibility testing was performed against up to nine strains of each of the Gram negative pathogens, Escherichia coli, Pseudomonas aeruginosa, Klebsiella pneumoniae and Acinetobacter baumannii.
(§2) The values in Table 2 are MIC (μg/mL) against strains of E. coli, K. pneumoniae, P. aeruginosa and A. baumanii, including strains which show elevated MICs to Polymyxin.
(§3) The values in Table 2A are MIC (μg/mL).
(§4) The in vitro activity of compounds 26 and C7 (FADDI-02) against resistant bacterial strains was compared. The resistant strains included including Escherichia coli, Pseudomonas aeruginosa, Klebsiella pneumoniae and Acinetobacter baumannii strains. The data is provided in Table 2C, where the strains are identified. The values in Table 2 are MIC (μg/mL).

Escherichia coli = tested on: Escherichia coli
Procedure: as §1, §2, §3, §4

Klebsiella pneumoniae = tested on: Klebsiella pneumoniae
Procedure: as §1, §2, §3, §4

Pseudomonas aeruginosa = tested on: Pseudomonas aeruginosa
Procedure: as §1, §2, §3, §4

Structure (SMILES) | MIC A. baumanii ATCC BAA-747 (Acinetobacter baumannii; strain ATCC BAA-747) [µg/mL] | MIC A. baumanii NCTC 13424 (Acinetobacter baumannii; strain NCTC 13424) [µg/mL] | MIC E. coli 058 (Escherichia coli; strain 058) [µg/mL] | MIC E. coli ATCC 25922 (Escherichia coli; strain ATCC 25922) [µg/mL] | MIC K. pneumoniae 065 (Klebsiella pneumoniae; strain 065) [µg/mL] | MIC K. pneumoniae ATCC 13882 (Klebsiella pneumoniae; strain ATCC 13882) [µg/mL] | MIC P. aeruginosa ATCC 27853 (Pseudomonas aeruginosa; strain ATCC 27853) [µg/mL] | MIC P. aeruginosa CCUG 59347 (Pseudomonas aeruginosa; strain CCUG 59347) [µg/mL] | MIC A. baumanii 056 (Acinetobacter baumannii) [µg/mL] | MIC A. baumanii ATCC BAA-747 (Acinetobacter baumannii) [µg/mL] | MIC E. coli 058 (Escherichia coli) [µg/mL] | MIC E. coli 061 (Escherichia coli) [µg/mL] | MIC E. coli ATCC 25922 (Escherichia coli) [µg/mL] | MIC K. pneumoniae 063 (Klebsiella pneumoniae) [µg/mL] | MIC K. pneumoniae 065 (Klebsiella pneumoniae) [µg/mL] | MIC P. aeruginosa 068 (Pseudomonas aeruginosa) [µg/mL] | MIC P. aeruginosa 070 (Pseudomonas aeruginosa) [µg/mL] | MIC P. aeruginosa ATCC 27853 (Pseudomonas aeruginosa) [µg/mL] | MIC A. baumanii NCTC 13424 (Acinetobacter baumannii) [µg/mL] | MIC K. pneumoniae ATCC 13882 (Klebsiella pneumoniae) [µg/mL] | further results
CC(C)C[C@@H]1NC(=O)[C@@H](CC2CCCCC2)NC(=O)[C@H](CCN)NC(=O)[C@@H](NC(=O)[C@H](CCN)NC(=O)[C@@H](NC(=O)CC(CN)C2CCCCC2)[C@@H](C)O)CCNC(=O)[C@H]([C@@H](C)O)NC(=O)[C@H](CCN)NC(=O)[C@H](CCN)NC1=O (single isomer, unassigned; isomer 1) [Example 86, 4-amino-3-cyclohexylbutanoyl polymyxin [D-cyclohexylalanine-6]nonapeptide. Isomer 1] | 0.125 (≈ 0.11 µM) | 0.125 (≈ 0.11 µM) | 8 (≈ 7.04 µM) | 0.125 (≈ 0.11 µM) | 8 (≈ 7.04 µM) | 0.5 (≈ 0.44 µM) | 0.25 (≈ 0.22 µM) | 0.5 (≈ 0.44 µM) | – | – | – | – | – | – | – | – | – | – | – | – | MIC A. baumanii 053 (Acinetobacter baumannii; strain 053): >64 µg/mL; MIC A. baumanii 056 (Acinetobacter baumannii; strain 056): 64 µg/mL (≈ 56.3 µM); MIC E. coli 061 (Escherichia coli; strain 061): 32 µg/mL (≈ 28.2 µM); MIC E. coli NCTC 9001 (Escherichia coli; strain NCTC 9001): 0.06 µg/mL (≈ 0.0528 µM); MIC K. pneumoniae 063 (Klebsiella pneumoniae; strain 063): >64 µg/mL; MIC P. aeruginosa 070 (Pseudomonas aeruginosa; strain 070): 8 µg/mL (≈ 7.04 µM)
CC(C)C[C@@H]1NC(=O)[C@@H](CC2CCCCC2)NC(=O)[C@H](CCN)NC(=O)[C@@H](NC(=O)[C@H](CCN)NC(=O)[C@@H](NC(=O)CC(CN)CC2CCCCC2)[C@@H](C)O)CCNC(=O)[C@H]([C@@H](C)O)NC(=O)[C@H](CCN)NC(=O)[C@H](CCN)NC1=O (single isomer, unassigned; isomer 1) [Example 91, 4-amino-3-(cyclohexylmethyl) butanoyl polymyxin [D-cyclohexylalanine-6]nonapeptide. Isomer 1] | 0.25 (≈ 0.217 µM) | 0.125 (≈ 0.109 µM) | 4 (≈ 3.48 µM) | 0.125 (≈ 0.109 µM) | 4 (≈ 3.48 µM) | 0.25 (≈ 0.217 µM) | 0.25 (≈ 0.217 µM) | 0.5 (≈ 0.435 µM) | – | – | – | – | – | – | – | – | – | – | – | – | –
CCCCCC/C=C/c1ccc(C[C@H]2NC(=O)[C@H](CCN)NC(=O)[C@@H](NC(=O)[C@H](CN)NC(=O)[C@@H](NC(=O)C3CNCC(CC(C)C)C3)C(C)O)CCNC(=O)[C@H]([C@@H](C)O)NC(=O)[C@H](CCN)NC(=O)[C@H](CCN)NC(=O)[C@H](CC(C)C)NC2=O)cc1 (single isomer, unassigned; isomer 2) [Example 18, (trans-5-(isobutyl-piperidine)-3-carbonyl L-Thr-L-Dap-polymyxin [D-(4-(E)-oct-1-enyl)-Phe]-6]heptapeptide Isomer 2] | – | – | – | – | – | – | – | – | 2 (≈ 1.63 µM) | 2 (≈ 1.63 µM) | 2 (≈ 1.63 µM) | 2 (≈ 1.63 µM) | 2 (≈ 1.63 µM) | 4 (≈ 3.26 µM) | 2 (≈ 1.63 µM) | 4 (≈ 3.26 µM) | 4 (≈ 3.26 µM) | 2 (≈ 1.63 µM) | – | – | MIC A. baumanii 053 (Acinetobacter baumannii): 2 µg/mL (≈ 1.63 µM); MIC E. coli 059 (Escherichia coli): 1 µg/mL (≈ 0.815 µM); MIC E. coli 060 (Escherichia coli): 2 µg/mL (≈ 1.63 µM); MIC K. pneumoniae 062 (Klebsiella pneumoniae): 2 µg/mL (≈ 1.63 µM); MIC K. pneumoniae 064 (Klebsiella pneumoniae): 4 µg/mL (≈ 3.26 µM); MIC K. pneumoniae 066 (Klebsiella pneumoniae): 2 µg/mL (≈ 1.63 µM); MIC K. pneumoniae 067 (Klebsiella pneumoniae): 4 µg/mL (≈ 3.26 µM); MIC K. pneumoniae ATCC 4352 (Klebsiella pneumoniae): 2 µg/mL (≈ 1.63 µM)
CC(C)C[C@@H]1NC(=O)[C@@H](CC2CCCCC2)NC(=O)[C@H](CCN)NC(=O)[C@@H](NC(=O)[C@H](CCN)NC(=O)[C@@H](NC(=O)C(CCN)Cc2ccccc2)C(C)O)CCNC(=O)[C@H]([C@@H](C)O)NC(=O)[C@H](CCN)NC(=O)[C@H](CCN)NC1=O (single isomer, unassigned; isomer 2) [Example 36, 4-amino-2-benzylbutanoyl-polymyxin [D-cyclohexylalanine]-6 nonapeptide. isomer 2] | – | – | – | – | – | – | – | – | – | 1 (≈ 0.874 µM) | 8 (≈ 6.99 µM) | – | 0.125 (≈ 0.109 µM) | – | 2 (≈ 1.75 µM) | – | – | 0.5 (≈ 0.437 µM) | 2 (≈ 1.75 µM) | 0.125 (≈ 0.109 µM) | MIC P. aeruginosa CCUG 59347 (Pseudomonas aeruginosa): 0.5 µg/mL (≈ 0.437 µM)
CC(C)C[C@@H]1NC(=O)[C@@H](CC2CCCCC2)NC(=O)[C@H](CCN)NC(=O)[C@@H](NC(=O)[C@H](CN)NC(=O)[C@@H](NC(=O)CC(CN)C2CCCCC2)C(C)O)CCNC(=O)[C@H]([C@@H](C)O)NC(=O)[C@H](CCN)NC(=O)[C@H](CCN)NC1=O (single isomer, unassigned; isomer 2) [Example 43, 4-amino-3-cyclohexylbutanoyl L-Thr-L-Dap-polymyxin [D-cyclohexylalanine]-6 heptapeptide. isomer 2] | 0.125 (≈ 0.111 µM) | 0.25 (≈ 0.223 µM) | 1 (≈ 0.891 µM) | 0.25 (≈ 0.223 µM) | 0.5 (≈ 0.445 µM) | 0.25 (≈ 0.223 µM) | 0.25 (≈ 0.223 µM) | 0.25 (≈ 0.223 µM) | – | – | – | – | – | – | – | – | – | – | – | – | MIC A. baumanii 053 (Acinetobacter baumannii; strain 053): 64 µg/mL (≈ 57 µM); MIC A. baumanii 056 (Acinetobacter baumannii; strain 056): 32 µg/mL (≈ 28.5 µM); MIC E. coli 061 (Escherichia coli; strain 061): 8 µg/mL (≈ 7.13 µM); MIC E. coli NCTC 9001 (Escherichia coli; strain NCTC 9001): 0.06 µg/mL (≈ 0.0535 µM); MIC K. pneumoniae 063 (Klebsiella pneumoniae; strain 063): 16 µg/mL (≈ 14.3 µM); MIC P. aeruginosa 068 (Pseudomonas aeruginosa; strain 068): 2 µg/mL (≈ 1.78 µM); MIC P. aeruginosa 070 (Pseudomonas aeruginosa; strain 070): 2 µg/mL (≈ 1.78 µM)
CC(C)C[C@@H]1NC(=O)[C@@H](CC2CCCCC2)NC(=O)[C@H](CCN)NC(=O)[C@@H](NC(=O)[C@H](CN)NC(=O)[C@@H](NC(=O)C(CCN)c2ccc(F)cc2)C(C)O)CCNC(=O)[C@H]([C@@H](C)O)NC(=O)[C@H](CCN)NC(=O)[C@H](CCN)NC1=O (single isomer, unassigned; isomer 2) [Example 44, 4-amino-2-(4-fluorophenyl) butanoyl L-Thr-L-Dap-polymyxin [D-cyclohexylalanine]-6 heptapeptide. Isomer 2] | – | – | – | – | – | – | – | – | 8 (≈ 7.05 µM) | 0.06 (≈ 0.0529 µM) | 2 (≈ 1.76 µM) | 8 (≈ 7.05 µM) | 0.25 (≈ 0.22 µM) | 16 (≈ 14.1 µM) | 0.5 (≈ 0.441 µM) | 2 (≈ 1.76 µM) | 1 (≈ 0.882 µM) | 0.25 (≈ 0.22 µM) | 0.06 (≈ 0.0529 µM) | 0.25 (≈ 0.22 µM) | MIC E. coli NCTC 9001 (Escherichia coli): 0.03 µg/mL (≈ 0.0264 µM); MIC K. pneumoniae ATCC 4352 (Klebsiella pneumoniae): 0.125 µg/mL (≈ 0.11 µM); MIC P. aeruginosa CCUG 59347 (Pseudomonas aeruginosa): 0.5 µg/mL (≈ 0.441 µM)
CC(C)C[C@@H]1NC(=O)[C@@H](CC2CCCCC2)NC(=O)[C@H](CCN)NC(=O)[C@@H](NC(=O)[C@H](CN)NC(=O)[C@@H](NC(=O)C(CCN)Cc2cccc(F)c2)C(C)O)CCNC(=O)[C@H]([C@@H](C)O)NC(=O)[C@H](CCN)NC(=O)[C@H](CCN)NC1=O (single isomer, unassigned; isomer 2) [Example 45, 4-amino-2-(3-fluorobenzyl) butanoyl L-Thr-L-Dap-polymyxin [D-cyclohexylalanine]-6 heptapeptide. isomer 2] | – | – | – | – | – | – | – | – | 64 (≈ 55.7 µM) | 0.25 (≈ 0.218 µM) | 4 (≈ 3.48 µM) | 16 (≈ 13.9 µM) | 0.25 (≈ 0.218 µM) | 16 (≈ 13.9 µM) | 1 (≈ 0.871 µM) | 1 (≈ 0.871 µM) | 1 (≈ 0.871 µM) | 0.125 (≈ 0.109 µM) | 0.25 (≈ 0.218 µM) | 0.25 (≈ 0.218 µM) | MIC A. baumanii 053 (Acinetobacter baumannii): 64 µg/mL (≈ 55.7 µM); MIC E. coli NCTC 9001 (Escherichia coli): 0.06 µg/mL (≈ 0.0522 µM); MIC P. aeruginosa CCUG 59347 (Pseudomonas aeruginosa): 0.25 µg/mL (≈ 0.218 µM)
